# Numbers after ± are expanded uncertainties.
# Assay: excess molar enthalpy (molar enthalpy of mixing); xn = mol fraction of the nth substance listed
# Settings: 101.33 kPa, Gas, Flow calorimetry, x1 = 0.5
excess molar enthalpy (373.15 K),excess molar enthalpy (383.15 K),excess molar enthalpy (393.15 K),excess molar enthalpy (403.15 K),excess molar enthalpy (413.15 K),excess molar enthalpy (423.15 K),excess molar enthalpy (433.15 K),excess molar enthalpy (443.15 K),excess molar enthalpy (453.15 K),excess molar enthalpy (463.15 K),excess molar enthalpy (473.15 K),excess molar enthalpy (483.15 K),excess molar enthalpy (493.15 K),SMILES
0.0132 ± 0.000406 kcal/mol,0.0115 ± 0.000382 kcal/mol,0.0103 ± 0.000382 kcal/mol,0.00908 ± 0.000382 kcal/mol,0.00822 ± 0.000382 kcal/mol,0.00741 ± 0.000382 kcal/mol,0.00679 ± 0.000359 kcal/mol,0.00619 ± 0.000359 kcal/mol,0.00564 ± 0.000359 kcal/mol,0.00516 ± 0.000359 kcal/mol,0.00483 ± 0.000359 kcal/mol,0.00449 ± 0.000359 kcal/mol,0.00413 ± 0.000359 kcal/mol,O=O [oxygen] + O
0.0129 ± 0.000382 kcal/mol,0.0113 ± 0.000359 kcal/mol,0.0101 ± 0.000359 kcal/mol,0.00891 ± 0.000359 kcal/mol,0.00803 ± 0.000359 kcal/mol,0.00722 ± 0.000335 kcal/mol,0.00664 ± 0.000335 kcal/mol,0.006 ± 0.000335 kcal/mol,0.00547 ± 0.000335 kcal/mol,0.00504 ± 0.000335 kcal/mol,0.00471 ± 0.000335 kcal/mol,0.0043 ± 0.000335 kcal/mol,0.00402 ± 0.000335 kcal/mol,N#N [nitrogen] + O
